Experimental data published in publication PMC10854695, “Using Flavonoid Substitution Status to Predict Anticancer Effects in Human Melanoma Cancers: An In Vitro Study” (Cancers, 2024).
Where two headings read alike, the source gives them in different places.

Legend:
[1] = tested on: caspases, PARP, phospho-RSK in C32 cells; assay: Western immunoblot of apoptosis mediators and RSK, C32; format: cell-based, human; conditions: C32, 48 h, Western blot
Protocol: (§1) Floating cells were harvested by centrifugation of the conditioned media (300× g, 5 min). Cell pellet and adherent cells were lysed in a cell lysis buffer supplemented with inhibitors of proteases and phosphatases. The cell lysate was sonicated (2 × 10 s) on ice with an ultrasonic homogenizer (UP200S, Hielscher Ultrasonics GmbH, Teltow, Germany) and centrifuged for 10 min at 10,000× g. The supernatant was collected and stored in a freezer at −70 °C. Protein concentrations in the cell supernatants were determined using a Lowry assay. Obtained proteins were dissolved on SDS-PAGE gels (7.5%, 10%, or 12%) using the Mini-Protean Tetra system. The proteins were transferred to nitrocellulose membranes using the Mini Trans-Blot Cell wet blotting system. The 5% skim milk was used to block membranes. Then, membranes were probed for 24 h at 4 °C with the following antibodies: anti-phospho-RSK, anti-RSK, anti-PARP, anti-cleaved PARP, anti-caspase-8, anti-caspase-9, anti-caspase-7, anti-caspase-3, and anti-actin. Membranes were incubated with an ECL-HRP (enhanced chemiluminescence-horseradish peroxidase) substrate, and the signal was spotted using the BioSpectrum Imaging System and VisionWorks LS software 7.0 (Ultra-Violet Products, Ltd., San Gabriel, CA, USA). The intensity of the bands was quantified by densitometric analysis using UVIBand software, version 15.08d (Uvitec Ltd., Cambridge, UK).

C32 melanoma cells [2] = assay: Apoptosis assay, annexin V/PI flow cytometry, C32; format: cell-based, human; conditions: C32, 25 µM, 48 h
Protocol: (§2) Firstly, cells were placed in 6-well plates at a density of 1 × 10^5 cells per well and allowed to adhere for 24 h. Then, cells were treated with 25 µM, 50 µM, and 100 μM of the selected flavonoids (1, 6, 15, 16, 17, 37) and incubated for 48 h. Floating and adherent cells were collected and assayed using the manufacturer’s protocol supported by the Dead Cell Apoptosis Kit for flow cytometry. Concisely, 100 μL of an annexin-binding buffer containing a 5 μL annexin V-FITC conjugate solution and 1 μg/mL PI (propidium iodide) was used to disperse the cells. After 15 min of incubation, an additional 400 μL of the mentioned buffer was added. The cells were analyzed with a DxFLEX flow cytometer (Beckman Coulter, Brea, CA, USA).

A375 melanoma cells [3] = assay: MTT cell viability assay, A375;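 note: Read-out is formazan absorbance at 570 nm after 2 h with MTT, with compounds in at most 0.1% v/v DMSO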
Protocol: (§3) The MTT colorimetric assay was performed as a preliminary evaluation of the cytotoxicity of the selected flavonoids according to the method described and validated by Strawa et al. [21]. Briefly, melanoma cells and fibroblasts were seeded in 96-well microplates at a density of 1 × 10^4 cells per well. Fibroblasts were used as a control cell line in order to assess the selectivity of the compounds. […] Subsequently, the cells were washed with PBS, incubated with MTT solution for 2 h, and lysed with dimethyl sulfoxide (DMSO) supplemented with 1% (v/v) Sorensen’s glycine buffer. The absorbance was measured using a microplate reader (EPOCH 2, BioTek, Winooski, VT, USA) at a wavelength of 570 nm. The compounds were used at a final DMSO concentration of no more than 0.1% (v/v) in each well. The results were generated from at least three independent experiments. […] The IC50 values were calculated with GraphPad Prism 9 software (GraphPad Software, San Diego, CA, USA).

A375 melanoma cells [4] = assay: Apoptosis assay, annexin V/PI flow cytometry, A375; format: cell-based, human; conditions: 48 h
Protocol: as §2

A375 melanoma cells [5] = assay: [3H]-thymidine incorporation (DNA biosynthesis), A375; format: cell-based, human; conditions: read-out: IC50, effect on DNA biosynthesis ([3H]-thymidine incorporation)
Protocol: (§4) The inhibition of DNA biosynthesis was evaluated using [^3H]-thymidine incorporation into the DNA of melanoma cells (C32, A375) and fibroblasts treated with the studied compounds [21]. The cells were briefly seeded in 24-well plates (1 × 10^5 cells per well) and allowed to adhere for 24 h. […] After incubation for 24, 48, and 72 h, the cells were rinsed three times with PBS. Then, cells were lysed in 1 mL of 0.1 M NaOH containing 1% SDS. The cell lysate was moved into scintillation vials containing scintillation liquid, and the radioactivity of the samples was measured using a liquid scintillation analyzer (Perkin-Elmer, Waltham, MA, USA).

[6] = tested on: cleaved caspase-3 and cleaved caspase-7 in A375 cells; assay: Immunofluorescence of cleaved caspase-3/-7, A375; format: cell-based, human; conditions: A375, 48 h, immunofluorescent staining
Protocol: Firstly, to examine fluorescent signals, cells were placed in the bottom of 96-well black plates at 1 × 10^4 cells per well and permitted to adhere for 24 h. […] After incubating and removing the medium, cells were fixed in 4% paraformaldehyde for 15 min. Later, cells were rinsed three times with PBS and permeabilized with 0.1% Triton X-100 for 5 min at room temperature. The 10% heat-inactivated goat serum in the PBS was used to block non-specific binding. Subsequently, cells were treated with the following antibodies overnight: anti-cleaved caspase 3 and anti-cleaved caspase-7. […] Cell nuclei were stained with Hoechst 33342 and F-actin was stained with Phalloidin-Atto 488. Fluorescent signals were captured using a BD Pathway 855 confocal microscope (Becton Dickinson, Franklin Lakes, NJ, USA). The mean fluorescence intensity was calculated using ImageJ software (National Institutes of Health, Bethesda, Rockville, MD, USA).

A375 melanoma cells [7] = assay: Neutral red uptake (NRU) assay, A375; conditions: Homo sapiens, read-out: IC50, cytotoxic activity, NRU assay
Protocol: (§5) The NRU (neutral red uptake) was conducted as previously described by Szoka and co-workers, with some modifications [22]. Briefly, melanoma cells and fibroblasts were seeded in microplates at the density of 1 × 10^4 cells per well and allowed to adhere for 24 h. […] After treatment, the culture medium was replaced with a neutral red solution (40 µg/mL). An additional 2 h of incubation was performed. The neutral red solution was then removed and the neutral red accumulated in the cells was dissolved in 50% EtOH with 1% of the glacial acetic acid. The absorbance was estimated at 540 nm and IC50 values were calculated using GraphPad Prism software (GraphPad Software, San Diego, CA, USA).

[8] = tested on: caspases, PARP, phospho-RSK in A375 cells; assay: Western immunoblot of apoptosis mediators and RSK, A375; format: cell-based, human; conditions: A375, 48 h, Western blot
Protocol: as §1

A375 cells [9] = tested on: A375 cells; set-up: method as in PMID 28260058; conditions: 40 µM; cited from earlier work
C32 melanoma cells [10] = assay: [3H]-thymidine incorporation (DNA biosynthesis), C32; format: cell-based, human; conditions: read-out: IC50, effect on DNA biosynthesis ([3H]-thymidine incorporation)
Protocol: as §4

C32 melanoma cells [11] = assay: Neutral red uptake (NRU) assay, C32; conditions: Homo sapiens
Protocol: as §5

[12] = Neutral red uptake (NRU) assay, normal cells; conditions: human, human skin fibroblasts (CCD25Sk)
Protocol: as §5

[13] = tested on: cleaved caspase-3 and cleaved caspase-7 in C32 cells; assay: Immunofluorescence of cleaved caspase-3/-7, C32; format: cell-based, human; conditions: C32, 48 h, immunofluorescent staining
A375 cells [14] = tested on: A375 cells; set-up: method as in PMID 26911838; conditions: 10 and 20 μM, dose-dependent; cited from earlier work
C32 melanoma cells [15] = assay: MTT cell viability assay, C32; conditions: Homo sapiens, read-out: IC50, cytotoxic activity, MTT test;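 note: MTT added for 2 h, cells lysed in DMSO, absorbance read at 570 nm, compound vehicle kept at or below 0.1% DMSO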
Protocol: as §3

[16] = tested on: human skin fibroblasts (CCD25Sk); assay: [3H]-thymidine incorporation (DNA biosynthesis), normal cells; format: cell-based; conditions: Homo sapiens, Skin fibroblast, read-out: IC50, effect on DNA biosynthesis ([3H]-thymidine incorporation)
Protocol: as §4

in vitro = conditions: human
[17] = MTT cell viability assay, normal cells; conditions: human, human skin fibroblasts (CCD25Sk);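 note: fibroblasts served as non-cancer comparison line for selectivity versus melanoma cells, MTT reduction read as absorbance at 570 nm after 2 h dye exposure, compounds in ≤0.1% DMSO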
[18] = tested on: G-361 malignant melanoma cell line; set-up: method as in PMID 36991237; conditions: read-out: IC50, inhibition of viability, MTS test; cited from earlier work
[19] = tested on: SK-MEL-2 malignant melanoma cell line; set-up: method as in PMID 36991237; conditions: read-out: IC50, inhibition of viability, MTS test; cited from earlier work
[20] = Homo sapiens, A-375, 24 h, read-out: IC50, cytotoxic activity, MTT test, A375, 24 h
[21] = Homo sapiens, A-375, 48 h, read-out: IC50, cytotoxic activity, MTT test, A375, 48 h
[22] = Homo sapiens, A-375, 72 h, read-out: IC50, cytotoxic activity, MTT test, A375, 72 h
[23] = Homo sapiens, A-375, A375, 24 h
[24] = Homo sapiens, A-375, A375, 48 h
[25] = Homo sapiens, A-375, A375, 72 h
[26] = C32, 24 h, read-out: IC50, cytotoxic activity, NRU assay, C32, 24 h
[27] = C32, 48 h, read-out: IC50, cytotoxic activity, NRU assay, C32, 48 h
[28] = C32, 72 h, read-out: IC50, cytotoxic activity, NRU assay, C32, 72 h

IC50 (A375 melanoma cells [5]; A375, 48 h) | IC50 (A375 melanoma cells [5]; [23]) | IC50 (A375 melanoma cells [5]; [24]) | IC50 (A375 melanoma cells [5]; [25]) | IC50 (C32 melanoma cells [10]; Homo sapiens, C32, C32, 24 h) | IC50 (C32 melanoma cells [10]; Homo sapiens, C32, C32, 48 h) | IC50 (C32 melanoma cells [10]; Homo sapiens, C32, C32, 72 h) | IC50 at 24 h [12] | IC50 at 48 h [12] | IC50 at 72 h [12] | SMILES | IC50 (A375 melanoma cells [3]; [20]) | IC50 (A375 melanoma cells [3]; [21]) | IC50 (A375 melanoma cells [3]; [22]) | IC50 (A375 melanoma cells [7]; A-375, 24 h) | IC50 (A375 melanoma cells [7]; A-375, 48 h) | IC50 (A375 melanoma cells [7]; A-375, 72 h) | IC50 (C32 melanoma cells [11]; [26]) | IC50 (C32 melanoma cells [11]; [27]) | IC50 (C32 melanoma cells [11]; [28]) | IC50 (C32 melanoma cells [15]; C32, 24 h) | further results
28.6 ± 1.8 µM | 87.7 ± 4.2 µM | 28.6 ± 0.84 µM | 23.4 ± 1.6 µM | > 200 µM | 27.1 ± 0.49 µM | 22.5 ± 1.2 µM | > 200 µM | 87.8 ± 5.8 µM | 58 ± 3.2 µM | O=c1cc(-c2ccc(O)cc2)oc2cc(O)cc(O)c12 [Compound 1, apigenin] | > 200 µM | 31.9 ± 3 µM | 20.7 ± 1.5 µM | 64.5 ± 4.3 µM | 24.7 ± 2.4 µM | 21.2 ± 1.4 µM | 100 to 200 µM | 25.7 ± 1.6 µM | 22.4 ± 1.5 µM | > 200 µM | cleaved PARP and caspase-9 [1]: generated cleaved PARP and caspase-9; percentage of early apoptotic cells (C32 melanoma cells [2]): 13.3 ± 2.4%; percentage of late apoptotic cells (C32 melanoma cells [2]): 29.4 ± 3.3%; level of early apoptotic cells (A375 melanoma cells [4]; A375, 50 µM): 34.2 ± 2.8%; level of late apoptotic cells (A375 melanoma cells [4]; A375, 50 µM): 7.1 ± 1.6%; level of cleaved caspase-3 [6]: slightly increased; cleavage of initiator caspases, caspase-9 and caspase-8 [8]: cleavage of both initiator caspases; levels of the caspases-3 and -7 zymogens [8]: decreased levels; A375 cell viability, MTT assay (A375 cells [9]): decreased A375 cell viability; IC50 (C32 melanoma cells [10]; C32, 48 h): 27 ± 1.4 µM; caspase-3 expression [13]: notably extended; A375 cell motility and invasion (A375 cells [14]): significantly inhibited; IC50 (C32 melanoma cells [15]; C32, 48 h): 63.1 ± 4.7 µM; IC50 (C32 melanoma cells [15]; C32, 72 h): 31.8 ± 2.5 µM; IC50 ([16]; 24 h): 188 ± 8.1 µM; IC50 ([16]; 48 h): 189 ± 9.5 µM; IC50 ([16]; 72 h): > 200 µM; IC50 at 24 h (in vitro): > 200 µM; IC50 at 48 h (in vitro): > 200 µM; IC50 at 72 h (in vitro): 100 to 200 µM
38.5 ± 2.9 µM | > 200 µM | 38.6 ± 0.91 µM | 30.9 ± 1.8 µM | > 200 µM | 30.9 ± 2.2 µM | 24.5 ± 1.81 µM | > 200 µM | 45.2 ± 2.6 µM | 21.4 ± 1.7 µM | O=c1cc(-c2ccc(O)c(O)c2)oc2cc(O)cc(O)c12 [Compound 6, luteolin] | > 200 µM | 38.2 µM | 24.6 ± 1.6 µM | 58.1 ± 4.2 µM | 25.7 µM | 23.9 ± 0.23 µM | 41.3 ± 3.8 µM | 13.1 µM | 12.6 ± 1.2 µM | > 200 µM | cleaved PARP and caspase-9 [1]: generated cleaved PARP and caspase-9; IC50 (A375 melanoma cells [3]; read-out: IC50, cytotoxic activity, MTT test, A375, 48 h): 38.2 ± 4.1 µM; level of early apoptotic cells (A375 melanoma cells [4]; A375, 25 µM): 63.6 ± 6.1%; level of late apoptotic cells (A375 melanoma cells [4]; A375, 25 µM): 13.0 ± 1.8%; level of cleaved caspase-3 [6]: slightly increased; IC50 at 24 h [17]: > 200 µM; IC50 at 48 h [17]: 69.7 ± 5.2 µM; IC50 at 72 h [17]: 20.1 ± 1.4 µM; cleavage of initiator caspases, caspase-9 and caspase-8 [8]: cleavage of both initiator caspases; levels of the caspases-3 and -7 zymogens [8]: decreased levels; caspase-3 expression [13]: notably extended; level of the cleaved caspase-7 [13]: slightly increased; IC50 (C32 melanoma cells [15]; C32, 48 h): 42.1 ± 3.5 µM; IC50 (C32 melanoma cells [15]; C32, 72 h): 13.1 ± 1.3 µM; IC50 ([16]; 24 h): > 200 µM; IC50 ([16]; 48 h): > 200 µM; IC50 ([16]; 72 h): > 200 µM
29.7 ± 1.6 µM | 62.1 ± 3.9 µM | 29.7 ± 0.62 µM | 20.5 ± 2.2 µM | 38.1 ± 1.5 µM | 18.4 ± 0.42 µM | 12.8 ± 0.9 µM | > 200 µM | 100 to 200 µM | 72.9 ± 5.6 µM | O=c1cc(-c2ccccc2)oc2c(O)c(O)ccc12 [Compound 16, 7,8-dihydroxyflavone] | 100 to 200 µM | 33.2 ± 3.2 µM | 20.5 ± 2.2 µM | 100 to 200 µM | 36 ± 3.5 µM | 27.4 ± 2.4 µM | > 200 µM | 19.9 ± 1.2 µM | 16.5 ± 2.1 µM | 100 to 200 µM | IC50 [18]: 200 to 250 µM; level of early apoptotic cells (A375 melanoma cells [4]; A375, 25 µM): 49.1 ± 3.9%; level of late apoptotic cells (A375 melanoma cells [4]; A375, 25 µM): 6.4 ± 1.5%; IC50 at 24 h [17]: > 200 µM; IC50 at 48 h [17]: 100 to 200 µM; IC50 at 72 h [17]: 93.3 ± 8 µM; cleavage of caspase-9 [8]: weak cleavage; expression of cleaved caspase-8 [8]: increased; phosphorylation of the RSK protein [8]: impaired; IC50 (C32 melanoma cells [10]; C32, 48 h): 18.4 ± 1.4 µM; IC50 [19]: 200 to 250 µM; level of the cleaved caspase-7 [13]: slightly increased; IC50 (C32 melanoma cells [15]; C32, 48 h): 39.2 ± 2.6 µM; IC50 (C32 melanoma cells [15]; C32, 72 h): 26.2 ± 2.8 µM; IC50 ([16]; 24 h): 81.6 ± 5.8 µM; IC50 ([16]; 48 h): 64.6 ± 2.8 µM; IC50 ([16]; 72 h): 37 ± 2.5 µM
